{"source": "patent US5622965A", "about": "“4-hydroxy-3-nitro-1,2-dihydroquinolin-2-ones and the use thereof as excitatory amino acid and glycine receptor antagonists” (priority 1993, dated 1997)", "key": {"glycine receptor": {"test_system": "glycine receptor", "test": "binding to the glycine receptor (general statement)", "details": "in words"}, "glycine/NMDA receptor": {"test_system": "glycine/NMDA receptor", "test": "1 μM glycine-stimulated [3H]-MK801 binding assay (glycine/NMDA receptor)", "design": "species or system rat", "details": "for potency relative to 5,7-dichlorokynurenic acid (DCK): % of DCK; for Ki: glycine/NMDA receptor binding", "description": "This assay takes advantage of the fact that the binding of [^3 H]-MK801 to the PCP receptor inside the pore of the NMDA channel is dependent on the presence of both glutamate and glycine. In the absence of glycine but in the presence of glutamate, [^3 H]-MK801 cannot bind effectively to the PCP receptor, because the NMDA channel remains closed and access of [^3 H]-MK801 to the PCP receptor inside the closed channel pore is severely restricted.\nThe assay is conducted using rat brain membrane homogenates which are enriched in NMDA receptors. The membranes are prepared as follows. Frozen rat brains obtained from Pel-Freez, Rogers, Arkansas) are homogenized in 15 volumes (w/v) of ice cold 0.32M sucrose. The homogenate is spun at 1,000×g for ten minutes. The supernatant is collected and spun for 20 minutes at 44,000×g. The pellet is suspended in 15 volumes of water (relative to original brain weight). The homogenate is again spun at 44,000×g for twenty minutes. The pellet is resuspended in 5 volumes of water and the suspension is freeze-thawed 2 times. After the final thaw cycle, the suspension is brought to 15 volumes with water and spun at 44,000×g for twenty minutes. The pellet is resuspended in 5 volumes of ice-cold 10 mM HEPES, and is titrated to pH 7.4 with KOH containing 0.04% Triton X-100. Membranes are incubated with the Triton/HEPES buffer at 37° C. for 15 minutes. The volume is then brought to 15 with ice-cold 10 mM HEPES, pH 7.4, and spun/washed three times with spins of 44,000×g between washes. The final pellet is suspended in three volumes of 50 mM HEPES, pH 7.4 and the protein concentration is determined with a standard dye-binding protein assay (Bio-Rad, Richmond, Calif.). The suspension is stored at-80° C. until used. Only HPLC grade water is used for all buffers and suspensions/washings. The extensive washings are necessary to remove as much endogenous glycine from the membrane preparation as possible.\nNonspecific binding is defined as the […] presence of PCP (final concentration: 100 μM). To determine the effect of 1 μM glycine on the binding of [3H]-MK801, bound radioactivity in the presence of 10 μM glutamate alone (final concentration) is subtracted from the bound radioactivity in the presence of both 10 μM glummate and 1 μM glycine (final concentration). A 500 nM concentration (final) of 5,7-dichlorokynurenic (DCK) acid is added to all assay tubes. This concentration of the glycine antagonist DCK \"buffers\" most of the residual endogenous glycine that is not removed by the extensive washing steps that are carried out during the membrane preparation procedure.\nThe assays are incubated for 120 minutes at room temperature after which time the membrane-bound radioactivity is isolated from the free radioactivity by vacuum filtration through Whatman glass fiber filters that had been pretreated with 0.3% polyethyleneimine. Filtration is accomplished using a Brandel 48 well cell harvester. Filtered membranes are washed three times with 3 ml each of ice cold buffer. Filters are transferred to scintillation vials and 5 ml of scintillation cocktail is added. The vials are shaken overnight and the radioactivity is counted by liquid scintillation spectroscopy. The assays are done in triplicate and all experiments are conducted at least three times."}, "neurons": {"test_system": "neurons", "details": "in words; cited from earlier work"}, "rodents": {"test_system": "rodents", "details": "in words; cited from earlier work"}, "pigeons": {"test_system": "pigeons", "details": "in words; cited from earlier work"}, "[1]": {"details": "cited from earlier work"}, "[2]": {"test_system": "glycine binding site of the NMDA receptor", "details": "cited from earlier work"}, "[3]": {"details": "in words; cited from earlier work"}, "PCP receptor": {"target": "PCP receptor", "details": "cited from earlier work"}}, "note": "Read-outs that look alike come from different tables or passages of the source."}
{"compound": "O=c1[nH]c2ccccc2c(O)c1[N+](=O)[O-]", "note": "[Compound 16a, 3-Nitro-4-hydroxy-1,2-dihydroquinolin-2-one]", "values": [{"measurement": "binding to the glycine receptor", "setting": "glycine receptor", "result": "high binding"}, {"measurement": "selectivity for the glycine receptor", "setting": "glycine receptor", "result": "highly selective"}, {"measurement": "potency relative to 5,7-dichlorokynurenic acid (DCK)", "setting": "glycine/NMDA receptor", "result": 1.4, "unit": "%"}, {"measurement": "Ki", "setting": "glycine/NMDA receptor", "result": 18000, "unit": "nM"}]}
{"compound": "c1ccc(C2(N3CCCCC3)CCCCC2)cc1", "note": "[PCP, phencyclidine]", "values": [{"measurement": "neuroprotective efficacy", "setting": "neurons", "result": "neuroprotective efficacy both in vitro and in vivo"}, {"measurement": "PCP-like behavioral effects in rodents / animal models", "setting": "rodents", "result": "behavioral excitation (hyperlocomotion)"}, {"measurement": "PCP-like behavioral effect in pigeons", "setting": "pigeons", "result": "characteristic katalepsy"}]}
{"compound": "CNC1(c2ccccc2Cl)CCCCC1=O", "note": "(stereo not drawn) [ketamine]", "values": [{"measurement": "neuroprotective efficacy", "setting": "neurons", "result": "neuroprotective efficacy both in vitro and in vivo"}]}
{"compound": "NC1CCN(O)C1=O", "note": "(stereo not drawn) [HA-966]", "values": [{"measurement": "blood/brain barrier penetration", "setting": "[1]; in words", "result": "sufficiently penetrates the blood/brain barrier"}, {"measurement": "affinity for the glycine binding site", "setting": "[2]; in words", "result": "micromolar affinity"}, {"measurement": "mode of action at the glycine binding site", "setting": "[2]; in words", "result": "partial agonist"}]}
{"compound": "O=c1[nH]c2ccc([N+](=O)[O-])cc2c(O)c1[N+](=O)[O-]", "note": "[Compound 16b, 3,6-Dinitro-4-hydroxy-1,2-dihydroquinolin-2-one]", "values": [{"measurement": "activity relative to 16a", "setting": "glycine/NMDA receptor; in words", "result": "about as active as 16a"}]}
{"compound": "COc1ccc2c(c1)[C@]13CCCC[C@@H]1[C@H](C2)N(C)CC3", "note": "[dextromethorphan]", "values": [{"measurement": "neuroprotective efficacy", "setting": "neurons", "result": "neuroprotective efficacy both in vitro and in vivo"}]}
{"compound": "O=C(O)[C@@H]1C[C@H](CP(=O)(O)O)CCN1", "note": "[CGS 19755]", "values": [{"measurement": "neuroprotective efficacy", "setting": "neurons", "result": "neuroprotective efficacy"}, {"measurement": "PCP-like behavioral side effects", "setting": "[3]", "result": "adverse PCP-like behavioral side effects"}]}
{"compound": "O=C(O)c1cc(O)c2c(Cl)cc(Cl)cc2n1", "note": "[5,7-dichlorokynurenic acid]", "values": [{"measurement": "blood/brain barrier penetration", "setting": "[1]; in vivo", "result": "cannot penetrate the blood/brain barrier"}, {"measurement": "affinity for the glycine binding site", "setting": "[2]; in words", "result": "relatively high receptor binding affinity"}]}
{"compound": "C[C@]12N[C@H](Cc3ccccc31)c1ccccc12", "note": "[MK-801]", "values": [{"measurement": "neuroprotective efficacy", "setting": "neurons", "result": "neuroprotective efficacy both in vitro and in vivo"}, {"measurement": "Kd", "setting": "PCP receptor", "result": "~3", "unit": "nM"}, {"measurement": "PCP-like behavioral side effects", "setting": "[3]", "result": "adverse PCP-like behavioral side effects"}]}
{"compound": "O=c1[nH]c2cc(Cl)cc(Cl)c2[nH]c1=O", "note": "[5,7-dichloro-QX]", "values": [{"measurement": "potency relative to 5,7-dichlorokynurenic acid (DCK)", "setting": "glycine/NMDA receptor", "result": 20, "unit": "%"}]}
{"compound": "O=c1[nH]c2cc(Cl)cc(Cl)c2c(O)c1[N+](=O)[O-]", "note": "[Compound 16c, 5,7-dichloro-3-nitro-4-hydroxy-1,2-dihydroquinolin-2-one]", "values": [{"measurement": "potency relative to 5,7-dichlorokynurenic acid (DCK)", "setting": "glycine/NMDA receptor", "result": 19, "unit": "%"}, {"measurement": "Ki", "setting": "glycine/NMDA receptor", "result": 1400, "unit": "nM"}]}
{"compound": "5,6-dichloro-3-nitro-4-hydroxy-1,2-dihydroquinolin-2-one [Compound 16f]", "values": [{"measurement": "Ki", "setting": "glycine/NMDA receptor", "result": 800, "unit": "nM"}]}
{"compound": "O=C(O)c1cc(O)c2ccc(Cl)cc2n1", "note": "[7-Cl-kynurenic acid]", "values": [{"measurement": "blood/brain barrier penetration", "setting": "[1]; in words", "result": "cannot penetrate the blood/brain barrier"}, {"measurement": "affinity for the glycine binding site", "setting": "[2]; in words", "result": "relatively high receptor binding affinity"}]}
{"compound": "O=C(O)c1cc2ccccc2[nH]1", "note": "[indole-2-carboxylic acid]", "values": [{"measurement": "blood/brain barrier penetration", "setting": "[1]; in words", "result": "cannot penetrate the blood/brain barrier"}, {"measurement": "affinity for the glycine binding site", "setting": "[2]; in words", "result": "relatively high receptor binding affinity"}]}
{"compound": "NCC(=O)O", "note": "[glycine]", "values": [{"measurement": "Kd", "setting": "[2]; used in Cheng and Prusoff equation, read-out: known affinity of glycine for the glycine binding site", "result": 100, "unit": "nM"}]}
{"compound": "O=C(O)C1CC2CC(CP(=O)(O)O)CCC2CN1", "note": "(stereo not drawn) [LY274614]", "values": [{"measurement": "neuroprotective efficacy", "setting": "neurons", "result": "neuroprotective efficacy"}]}
